“Also recorded” adds a separate entry of the source.
Experiments:
[1] = test system: human platelets; experiment: Platelet morphology: formation of extensions with new cell bodies (progeny) in suspension-cultured platelets; type: cell-based; conditions: platelets 1×10^5 per mm^3 cultured in suspension for 6 hours; nevirapine 750 μM; 9-cis retinoic acid 1 and 10 μM
Experimental: Platelet Isolation and Culture. Whole blood was centrifuged at 150×g for 20 minutes to obtain platelet-rich plasma (PRP). Residual leukocytes were removed from the PRP by CD45+ bead selection as previously described^1, 6. The negatively selected platelets were resuspended in serum-free M199 culture medium at 37° C. in a humidified 5% CO2 atmosphere. For select studies, platelets were resuspended in fresh human plasma. […] Unless otherwise indicated, the washed platelets were cultured in suspension using round-bottom polypropylene tubes (Becton Dickinson, Franklin Lakes, N.J.). Platelets were suspended at 100,000/μl.
Platelet Morphology and Protein Expression. Freshly-isolated or aged platelets were either fixed immediately to assess baseline morphology, or after 6 hours of suspension culture as described above.
For studies that used fixed platelets, paraformaldehyde (4%) was added directly to the suspension culture as previously described^1, 6, 26 in order to maintain the native morphology of the cells. The fixed platelets (10,000 total for each sample) were subsequently layered onto coverslips coated with Vectabond™ (Vector Laboratories, Burlingame, Calif.) using a cytospin centrifuge (Shandon Cytospin, Thermo Fisher Scientific, Waltham, Mass.). To determine the number of platelets with extensions and distinct cell bodies, fixed cells were counterstained with Alexa Fluor® 488 phalloidin (A12379; Invitrogen, Eugene, Oreg.), a high-affinity probe for F-actin, and/or an Alexa Fluor® 555 (W32464; Invitrogen) conjugate of wheat germ agglutinin (WGA). Three random fields were captured from each independent experiment and at least 500 total cells, which encompassed individual platelets with two or more distinct cell bodies, were counted (FIG. 1H and FIG. 1I).

[2] = test system: endogenous reverse transcriptase (RT) activity in platelets; experiment: Reverse transcriptase activity assay in platelet lysates (reverse transcription of MS2 phage RNA); type: biochemical, human; conditions: platelet lysates incubated with compound at 37° C. for 120 minutes; nevirapine 100, 500, 750 μM; 9-cis retinoic acid 0.1, 1, 10 μM
Experimental: Reverse Transcriptase Activity Assay (FIGS. 10A-C and FIGS. 11A-C). The reverse transcriptase (RT) activity assay was performed as previously described^22 with minor modifications. […] MS2 phage RNA was subsequently added to the lysates and reverse transcription of MS2 phage RNA by platelet lysates or a commercial RT (Thermoscript, Invitrogen, Eugene, Oreg.) was determined.

[3] = test system: human platelets; experiment: Surface P-selectin expression of cultured platelets with new cell bodies after agonist activation (immunostaining); type: cell-based; conditions: after 6 hours culture; ADP (2 μM) or thrombin (0.005 U/ml) for 1 minute
Excerpt: For protein localization studies by immunocytochemistry (ICC), fixed cells were stained with antibodies directed against αIIbβ3 and Annexin V (ab34407; Abeam, Cambridge, Mass.), P-selectin (sc-6941; Santa Cruz Biotechnology, Santa Cruz, Calif.), β-tubulin (T-5293; Sigma), or mitofilin (MSM02; MitoSciences, Eugene, Oreg.). Specificity of the staining was confirmed for each antibody with isotype-matched nonimmune IgG. The cells were counterstained with either Alexa Fluor® 488 phalloidin or Alexa Fluor® 555 WGA conjugate as described in the previous paragraph. To assess mitochondrial function, use was made of MitoTracker® Red CM-H2XRos (M7513; Invitrogen), a reduced probe that fluoresces when it enters actively respiring mitochondria. For these studies, MitoTracker® (1 μM) was incubated with the live platelets one hour before the end of the experiment.

Compound	number of newly-formed cell bodies extending from cultured platelets / progeny formation [1]	RT activity in platelets [2]	surface P-selectin expression in platelets that developed new cell bodies [3]
thrombopoietin: key regulator of bone marrow-dependent thrombopoiesis	no effect		
CC1=C(/C=C/C(C)=C\C=C\C(C)=C\C(=O)O)C(C)(C)CCC1 [9-cis retinoic acid]		inhibited	
Cc1ccnc2c1NC(=O)c1cccnc1N2C1CC1 [nevirapine]		inhibited	
Nc1ncnc2c1ncn2[C@@H]1O[C@H](COP(=O)(O)OP(=O)(O)O)[C@@H](O)[C@H]1O [ADP]			markedly increased
cytocholasin D	inhibited		
thrombin	did not develop new cells bodies; also recorded: blocks		markedly increased
